Laboratory results as given in patent publication US12022832B2, “Compounds and methods for treating nematode infections” (The Governing Council of The University of Toronto, priority 2018, dated 2024).
Read-outs that look alike come from different tables or passages of the source.

Columns and labels:
M. incognita (J2) = assay: M. incognita J2 viability in vitro; assay type: in vivo, Meloidogyne incognita; conditions: assay done using 45 uM; for M. incognita (J2 viability in vitro): concentration giving >20% and <80% death: 48 or 72 hours, other compounds
C. elegans (L1) = assay: C. elegans L1 viability, three day protocol; assay type: in vivo, Caenorhabditis elegans; conditions: for EC (80% dead): Caenorhabditis elegans, read-out: C. elegans (L1 viability): lowest concentration tested in which at least 80% of animals were dead; for C. elegans (L1 viability): lowest concentration tested in which greater than 20% of animals were dead: compounds 55-11, 55-12-21, 55-12-23
C. elegans = C. elegans acute motor (rubber-band, convulsion/paralysis) phenotype on solid substrate; assay type: in vivo, Caenorhabditis elegans; conditions: for C. elegans acute motor phene: lowest concentration at which 50% of the young adult animals exhibit convulsion/paralysis phenotypes / C. elegans acute motor phene: concentration at which 10-50% of the animals exhibit convulsion/paralysis phenotypes: solid substrate; for C. elegans acute motor phene: lowest concentration at which 50% of the young adult animals exhibit convulsion/paralysis phenotypes: 80 minutes of incubation; for C. elegans acute motor phene: concentration at which 10-50% of the animals exhibit convulsion/paralysis phenotypes: 80 minutes, compounds 55-12-6, 55-12-9, 55-12-12, 55-12-21, 55-12-23
Excerpt: Worms are scored for the indicated phenotype (see legend); convulsions along the circumferential axis is characterized as the ‘shaker’ phenotype in C. elegans; convulsions along the anterior-posterior axis is characterized as the ‘rubber-band’ phenotype in C. elegans. 18 young-adult animals were scored at each time-point for rubber-band (animals spontaneously contract or do so upon touch on the nose with a platinum wire), hyperactive movement (observing rapid lateral nose movement) and shaker (spontaneous circumferential rotations). […] Data are showing the mean number of animals with each phenotype.
If a penetrant phenotype is observed, a dose-response analysis is performed; the EC50 is shown.
Each compound was added to the MYOB substrate before pouring to achieve desired concentration after diffusion through the media. The final concentration of dimethyl sulfoxide (DMSO) in each of the wells was […]. Young adult or fourth-staged larval worms are transferred into each well using a platinum wire pick.
˜25 young adult animals of each indicated strain were picked using a platinum wire onto 2% MYOB agar containing the indicated drug condition with 1% DMSO. […] 18 animals were scored per trial; data are the mean response of 2-3 replicates showing the standard error of the mean.

M. incognita (eggs) = assay: M. incognita egg-hatch assay; assay type: in vivo, Meloidogyne incognita; conditions: 45 uM of each compound, ~50 eggs per well; effect threshold not stated
M. incognita = M. incognita Quick Soil Test (tomato); assay type: in vivo, Meloidogyne incognita; conditions: 45 uM, ~2000 J2 per tomato plant, worms in soil 4 days; for M. incognita (Quick Soil Test): concentration giving 10-20% killing: other compounds; for M. incognita (Quick Soil Test): concentration giving >80% killing: J2s counted in root tissue
P. hermaphrodita (L1) = assay: P. hermaphrodita L1 viability; assay type: in vivo, Phasmarhabditis hermaphrodita; conditions: 72 hours; for P. hermaphrodita (L1 viability): lowest concentration tested in which at least 80% of animals were dead: relative to no-drug controls; for P. hermaphrodita (L1 viability): lowest concentration tested in which greater than 20% of animals were dead: compounds 55-6, 55-12-20, 55-12-22
C. elegans (dauer) = assay: C. elegans dauer viability; assay type: in vivo, Caenorhabditis elegans; conditions: relative to no-drug controls; for C. elegans (dauer viability): lowest concentration tested in which at least 80% of animals were dead: 72 hours
C. elegans (adult) = assay: C. elegans adult viability; assay type: in vivo, Caenorhabditis elegans; conditions: 72 hours, relative to no-drug controls
P. pacificus (L1) = assay: P. pacificus L1 viability; assay type: in vivo, Pristionchus pacificus; conditions: 72 hours; for P. pacificus (L1 viability): lowest concentration tested in which at least 80% of animals were dead: relative to no-drug controls
[1] = 72 hours, relative to no-drug controls

SMILES	M. incognita (J2 viability in vitro): concentration giving >20% and <80% death (M. incognita (J2))	EC (80% dead) (C. elegans (L1); [1]) [µM]	M. incognita (Egg Hatch Rate) (M. incognita (eggs))	C. elegans (adult viability): lowest concentration tested in which at least 80% of animals were dead (C. elegans (adult))	C. elegans (dauer viability): lowest concentration tested in which at least 80% of animals were dead (C. elegans (dauer))	also measured
CC#Cc1ccc(-c2ccc(OC(F)F)cc2)nc1 [IIIhh (wact-55-12-14), 2-(4-(difluoromethoxy)phenyl)-5-(prop-1-yn-1-yl)pyridine]	np	7.5	–	–	–	–
NCc1ccc(-c2ccc(OC(F)F)cc2)nc1 [IIIkk (wact-55-12-17), (6-(4-(difluoromethoxy)phenyl)pyridin-3-yl)methanamine]	np	–	np	–	–	C. elegans acute motor phene: lowest concentration at which 50% of the young adult animals exhibit convulsion/paralysis phenotypes (C. elegans): np; M. incognita (Hatching Mobility) (M. incognita (eggs)): np; C. elegans (L1 viability): lowest concentration tested in which at least 80% of animals were dead (C. elegans (L1); [1]): np
CC(C)Cc1ccc(-c2ccc(OC(F)F)cc2)nc1 [IIItt (wact-55-12-26), 2-(4-(difluoromethoxy)phenyl)-5-isobutylpyridine]	np	30	–	–	–	M. incognita (Hatching Mobility) (M. incognita (eggs)): np; M. incognita (Quick Soil Test): concentration giving 10-20% killing (M. incognita): 45 uM
CCCc1ccc(-c2ccc(OC(F)F)cn2)cc1 [IIIbb (wact-55-12-8), 5-(difluoromethoxy)-2-(4-propylphenyl)pyridine]	np	–	–	–	–	EC (80% dead) (C. elegans (L1); 72 h): 60 µM
CCCCCCCCCCCCCC(=O)O[C@@H]1[C@@H](C)[C@@]2(O)[C@@H](C=C(CO)C[C@]3(O)C(=O)C(C)=C[C@@H]23)[C@@H]2C(C)(C)[C@]12OC(C)=O [PMA, phorbol myristate acetate, reference compound]	–	–	–	–	–	induction of rubber-band (RB) convulsions (C. elegans; in vivo): fail to induced a RB phenotype
CCCc1ccc(-c2ccc(OC(F)F)cc2)cc1 [IIIz (wact-55-12-6), 4-(difluoromethoxy)-4′-propyl-1,1′-biphenyl]	np	30	np	np	–	C. elegans acute motor phene: concentration at which 10-50% of the animals exhibit convulsion/paralysis phenotypes (C. elegans): 60 μM; P. hermaphrodita (L1 viability): lowest concentration tested in which at least 80% of animals were dead (P. hermaphrodita (L1)): 7.5 µM; C. elegans (dauer viability): concentration where 10-20% death is exhibited (C. elegans (dauer); compounds 55-2, 55-8, 55-9, 55-12-6): 60 μM; M. incognita (Quick Soil Test): concentration giving 10-20% killing (M. incognita): 45 uM
CCc1ccc(-c2ccc(OC(F)F)cc2)nc1 [IIIdd (wact-55-12-10), 2-(4-(difluoromethoxy)phenyl)-5-ethylpyridine]	–	30	–	np	30 µM	P. hermaphrodita (L1 viability): lowest concentration tested in which at least 80% of animals were dead (P. hermaphrodita (L1)): 15 µM; P. pacificus (L1 viability): lowest concentration tested in which at least 80% of animals were dead (P. pacificus (L1)): 15 µM
CCCc1ccc(-c2cccc(OC(F)F)c2)nc1 [IIIqq (wact-55-12-23), 2-(3-(difluoromethoxy)phenyl)-5-propylpyridine]	np	–	np	np	np	C. elegans acute motor phene: concentration at which 10-50% of the animals exhibit convulsion/paralysis phenotypes (C. elegans): 60 μM; M. incognita (Hatching Mobility) (M. incognita (eggs)): np; P. hermaphrodita (L1 viability): lowest concentration tested in which at least 80% of animals were dead (P. hermaphrodita (L1)): 15 µM; P. pacificus (L1 viability): lowest concentration tested in which at least 80% of animals were dead (P. pacificus (L1)): 30 µM; M. incognita (Quick Soil Test): concentration giving 10-20% killing (M. incognita): 45 uM; C. elegans (L1 viability): lowest concentration tested in which greater than 20% of animals were dead (C. elegans (L1); [1]): 60 µM
CCCCc1ccc(-c2ccc(OC(F)F)cc2)nc1 [IIIuu (wact-55-12-27), 5-butyl-2-(4-(difluoromethoxy)phenyl)pyridine]	np	15	np	–	–	–
CCCc1cccc(-c2ccc(OC(F)F)cc2)n1 [IIInn (wact-55-12-20), 2-(4-(difluoromethoxy)phenyl)-6-propylpyridine]	–	–	–	np	np	C. elegans acute motor phene: lowest concentration at which 50% of the young adult animals exhibit convulsion/paralysis phenotypes (C. elegans): np; P. hermaphrodita (L1 viability): lowest concentration tested in which greater than 20% of animals were dead (P. hermaphrodita (L1)): 60 µM; P. pacificus (L1 viability): lowest concentration tested in which greater than 20% of animals were dead (P. pacificus (L1); compound 55-12-20): 30 µM; C. elegans (L1 viability): lowest concentration tested in which at least 80% of animals were dead (C. elegans (L1); [1]): np
CCCCc1ccc(-c2ccc(OC)cc2)nc1 [IIIw (wact-55-12-28), 5-butyl-2-(4-methoxyphenyl)pyridine]	45 µM	15	–	–	–	M. incognita (Quick Soil Test): concentration giving >80% killing (M. incognita): 45 µM
CCCc1ccc(-c2ccc(OC(F)F)nc2)cc1 [IIIcc (wact-55-12-9), 2-(difluoromethoxy)-5-(4-propylphenyl)pyridine]	np	–	np	–	–	C. elegans acute motor phene: concentration at which 10-50% of the animals exhibit convulsion/paralysis phenotypes (C. elegans): 60 μM; EC (80% dead) (C. elegans (L1); 72 h): 60 µM
CCCc1cccnc1-c1ccc(OC(F)F)cc1 [IIIpp (wact-55-12-22), 2-(4-(difluoromethoxy)phenyl)-3-propylpyridine]	–	–	–	np	np	C. elegans acute motor phene: lowest concentration at which 50% of the young adult animals exhibit convulsion/paralysis phenotypes (C. elegans): np; P. hermaphrodita (L1 viability): lowest concentration tested in which greater than 20% of animals were dead (P. hermaphrodita (L1)): 60 µM; P. pacificus (L1 viability): lowest concentration tested in which at least 80% of animals were dead (P. pacificus (L1)): np; C. elegans (L1 viability): lowest concentration tested in which at least 80% of animals were dead (C. elegans (L1); [1]): np
CCCc1cnc(-c2ccc(OC(F)F)cc2)nc1 [IIIss (wact-55-12-25), 2-(4-(difluoromethoxy)phenyl)-5-propylpyrimidine]	np	–	–	–	–	–
CCCc1ccc(-c2ccc(SC(F)F)cc2)nc1 [IIIy (wact-55-12-5), 2-(4-((difluoromethyl)thio)phenyl)-5-propylpyridine]	np	30	–	–	–	–
Cc1ccc(-c2ccc(OC(F)F)cc2)nc1 [IIIee (wact-55-12-11), 2-(4-(difluoromethoxy)phenyl)-5-methylpyridine]	np	60	–	–	–	–
FC(F)Oc1ccc(-c2ccccn2)cc1 [IIIff (wact-55-12-12), 2-(4-(difluoromethoxy)phenyl)pyridine]	45 µM	–	–	np	np	C. elegans acute motor phene: concentration at which 10-50% of the animals exhibit convulsion/paralysis phenotypes (C. elegans): 60 μM; P. hermaphrodita (L1 viability): lowest concentration tested in which at least 80% of animals were dead (P. hermaphrodita (L1)): 60 µM; P. pacificus (L1 viability): lowest concentration tested in which at least 80% of animals were dead (P. pacificus (L1)): 60 µM; M. incognita (Quick Soil Test): concentration giving >80% killing (M. incognita): 45 µM; C. elegans (L1 viability): lowest concentration tested in which at least 80% of animals were dead (C. elegans (L1); [1]): np
CCCc1ccnc(-c2ccc(OC(F)F)cc2)c1 [IIIoo (wact-55-12-21), 2-(4-(difluoromethoxy)phenyl)-4-propylpyridine]	np	–	np	np	np	C. elegans acute motor phene: concentration at which 10-50% of the animals exhibit convulsion/paralysis phenotypes (C. elegans): 60 μM; P. hermaphrodita (L1 viability): lowest concentration tested in which at least 80% of animals were dead (P. hermaphrodita (L1)): 30 µM; P. pacificus (L1 viability): lowest concentration tested in which at least 80% of animals were dead (P. pacificus (L1)): 30 µM; M. incognita (Quick Soil Test): concentration giving >80% killing (M. incognita): 45 µM; C. elegans (L1 viability): lowest concentration tested in which greater than 20% of animals were dead (C. elegans (L1); [1]): 60 µM
CCCc1ccc(-c2ccc(OC(F)F)cc2)cn1 [IIIaa (wact-55-12-7), 5-(4-(difluoromethoxy)phenyl)-2-propylpyridine]	–	30	–	–	–	M. incognita (J2 viability in vitro): concentration giving >80% death (M. incognita (J2); 48 or 72 hours of incubation): 45 µM
